Measured values taken from patent US20250100995A1, “CEREBLON BINDING COMPOUNDS, COMPOSITIONS THEREOF, AND METHODS OF TREATMENT THEREWITH” (CELGENE CORPORATION, priority 2021, published 2025).
Where a name gives a salt, the structure may show the parent alone.

Molecular target: T1, AR (Homo sapiens, UniProt P10275)
T1 construct: endogenous in cells; host or cells: VCaP cells
T1 sequence (P10275 1-920): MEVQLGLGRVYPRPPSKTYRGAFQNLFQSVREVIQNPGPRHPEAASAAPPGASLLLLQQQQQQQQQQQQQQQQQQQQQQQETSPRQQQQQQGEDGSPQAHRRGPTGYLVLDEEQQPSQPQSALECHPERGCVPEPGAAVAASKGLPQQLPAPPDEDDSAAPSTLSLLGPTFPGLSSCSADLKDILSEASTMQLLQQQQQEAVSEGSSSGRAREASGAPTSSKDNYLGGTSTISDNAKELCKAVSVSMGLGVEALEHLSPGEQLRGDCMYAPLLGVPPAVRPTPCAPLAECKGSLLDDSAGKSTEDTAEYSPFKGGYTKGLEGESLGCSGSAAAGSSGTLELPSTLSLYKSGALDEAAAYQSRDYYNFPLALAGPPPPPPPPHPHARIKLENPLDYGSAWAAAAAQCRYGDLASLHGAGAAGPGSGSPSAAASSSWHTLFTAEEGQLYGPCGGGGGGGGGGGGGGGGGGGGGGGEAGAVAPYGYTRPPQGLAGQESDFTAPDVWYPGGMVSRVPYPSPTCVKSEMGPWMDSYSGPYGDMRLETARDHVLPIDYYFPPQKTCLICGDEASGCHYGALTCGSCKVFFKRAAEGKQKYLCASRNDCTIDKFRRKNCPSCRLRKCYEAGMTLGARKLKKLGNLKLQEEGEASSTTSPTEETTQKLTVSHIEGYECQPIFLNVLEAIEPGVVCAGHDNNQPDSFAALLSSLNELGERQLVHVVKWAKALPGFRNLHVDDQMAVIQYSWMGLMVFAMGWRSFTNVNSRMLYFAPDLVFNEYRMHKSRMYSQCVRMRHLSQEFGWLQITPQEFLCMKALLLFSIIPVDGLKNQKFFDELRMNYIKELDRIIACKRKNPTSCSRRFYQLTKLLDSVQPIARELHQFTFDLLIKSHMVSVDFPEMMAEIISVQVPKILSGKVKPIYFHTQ
Assay: VCAP AR Degradation Assay
Assay type: cell-based
Settings: VCaP cells, 24 h, AR ELISA; for DC50: concentration of compound when AR level = 50% of DMSO control; for Y: lowest measured AR level normalized to DMSO control (AR degradation efficiency)
Description: VCAP AR Degradation Assay. Test compounds were pre-dispensed into a Corning CellBind 96-well clear bottom plate (Cat #3300) using an acoustic dispenser to make a 10-point concentration series at 1:3 dilution for each compound. The final top concentration of each compound was 5 μM. DMSO at a final concentration of 0.1% was used as a control. VCaP cells cultured in DMEM with 8% fetal bovine serum (FBS) were seeded at 50K cells per well in a 200 μL volume into the compound plate and incubated at 37° C. in a CO2 incubator for 24 h. The medium was carefully removed from the cells and the plate was placed on ice. One hundred μL of ice-cold 1× cell lysis buffer from Cell Signaling Technologies (Cat #9803) was added to each well of the cells and the plate was incubated at 4° C. on a shaker for 1 h. Fifteen μL of cell lysate was used for AR ELISA detection using a PathScan Total Sandwich AR ELISA kit (Cell Signaling Technology, Cat #12580). AR levels in compound-treated wells were normalized to that of DMSO control and expressed as percent of control (PoC) (y). A Four Parameter Logistic Model (Sigmoidal Dose-Response Model) was used to determine the compound's DC50, and EC50, using the following equation: […]
The lowest measured AR level normalized to DMSO control in response to compound treatment, termed Y value, was used to characterize the compound-mediated AR degradation efficiency.

Structure (SMILES)	DC50 [nM]	Y	Y (hydrochloride)
C[C@@H]1CN(CCO[C@H]2CC[C@H](N3C(=S)N(c4ccc(C#N)c(C(F)(F)F)c4)C(=O)C3(C)C)CC2)C[C@H](C)N1CC(=O)Nc1ccc(C2(C)CCC(=O)NC2=O)cn1 (single isomer, unassigned) [Cmpd 5, hydrochloride]	> 200	*** (40%<Y<80%)	
C[C@@H]1CN(CCO[C@H]2CC[C@H](N3C(=S)N(c4ccc(C#N)c(C(F)(F)F)c4)C(=O)C3(C)C)CC2)C[C@H](C)N1CC(=O)Nc1ccc(C2(C)CCC(=O)NC2=O)cn1 (single isomer, unassigned) [Cmpd 6, hydrochloride]	> 200	*** (40%<Y<80%)	
C[C@@H]1CN(CCCO[C@H]2CC[C@H](N3C(=S)N(c4ccc(C#N)c(C(F)(F)F)c4)C(=O)C3(C)C)CC2)C[C@H](C)N1CC(=O)Nc1cc(N2CCC(=O)NC2=O)ccn1 (single isomer, unassigned) [Cmpd 7, hydrochloride]	> 200	*** (40%<Y<80%)	
C[C@@H]1CN(CCO[C@H]2CC[C@H](N3C(=S)N(c4ccc(C#N)c(C(F)(F)F)c4)C(=O)C3(C)C)CC2)C[C@H](C)N1CC(=O)Nc1cc(C2(C)CCC(=O)NC2=O)ccn1 (single isomer, unassigned) [Cmpd 8, hydrochloride]	≤ 5		* (0<Y≤20%)
C[C@@H]1CN(CCO[C@H]2CC[C@H](N3C(=S)N(c4ccc(C#N)c(C(F)(F)F)c4)C(=O)C3(C)C)CC2)C[C@H](C)N1CC(=O)Nc1cc(C2(C)CCC(=O)NC2=O)ccn1 (single isomer, unassigned) [Cmpd 9, hydrochloride]	≤ 5		** (20%<Y≤40%)
C[C@@H]1CN(CCO[C@H]2CC[C@H](N3C(=S)N(c4ccc(C#N)c(C(F)(F)F)c4)C(=O)C3(C)C)CC2)C[C@H](C)N1CC(=O)Nc1cc(C2CCC(=O)NC2=O)ccn1 (stereo partly drawn) [Cmpd 1, 2-((2R,6S)-4-(2-((trans-4-(3-(4-Cyano-3-(trifluoromethyl)phenyl)-5,5-dimethyl-4-oxo-2-thioxoimidazolidin-1-yl)cyclohexyl)oxy)ethyl)-2,6-dimethylpiperazin-1-yl)-N-(4-(2,6-dioxopiperidin-3-yl)pyridin-2-yl)acetamide hydrochloride]	5 to 50	** (20%<Y≤40%)	
C[C@@H]1CN(CCO[C@H]2CC[C@H](N3C(=S)N(c4ccc(C#N)c(C(F)(F)F)c4)C(=O)C3(C)C)CC2)C[C@H](C)N1CC(=O)Nc1ccc(C2CCC(=O)NC2=O)cn1 (stereo partly drawn) [Cmpd 2, 2-((2R,6S)-4-(2-((trans-4-(3-(4-Cyano-3-(trifluoromethyl)phenyl)-5,5-dimethyl-4-oxo-2-thioxoimidazolidin-1-yl)cyclohexyl)oxy)ethyl)-2,6-dimethylpiperazin-1-yl)-N-(5-(2,6-dioxopiperidin-3-yl)pyridin-2-yl)acetamide hydrochloride]	5 to 50	** (20%<Y≤40%)	
C[C@@H]1CN(CCO[C@H]2CC[C@H](N3C(=S)N(c4ccc(C#N)c(C(F)(F)F)c4)C(=O)C3(C)C)CC2)C[C@H](C)N1CC(=O)Nc1ccc(N2CCC(=O)NC2=O)cn1 [Cmpd 3, 2-((2R,6S)-4-(2-((trans-4-(3-(4-Cyano-3-(trifluoromethyl)phenyl)-5,5-dimethyl-4-oxo-2-thioxoimidazolidin-1-yl)cyclohexyl)oxy)ethyl)-2,6-dimethylpiperazin-1-yl)-N-(5-(2,4-dioxotetrahydropyrimidin-1(2H)-yl)pyridin-2-yl)acetamide hydrochloride]	> 200	*** (40%<Y<80%)	
C[C@@H]1CN(CCO[C@H]2CC[C@H](N3C(=S)N(c4ccc(C#N)c(Cl)c4)C(=O)C3(C)C)CC2)C[C@H](C)N1CC(=O)Nc1cc(C2CCC(=O)NC2=O)ccn1 (stereo partly drawn) [Cmpd 4, 2-((2R,6S)-4-(2-((trans-4-(3-(3-Chloro-4-cyanophenyl)-5,5-dimethyl-4-oxo-2-thioxoimidazolidin-1-yl)cyclohexyl)oxy)ethyl)-2,6-dimethylpiperazin-1-yl)-N-(4-(2,6-dioxopiperidin-3-yl)pyridin-2-yl)acetamide hydrochloride]	5 to 50	** (20%<Y≤40%)	
C[C@@H]1CN(CCCO[C@H]2CC[C@H](N3C(=S)N(c4ccc(C#N)c(C(F)(F)F)c4)C(=O)C3(C)C)CC2)C[C@H](C)N1CC(=O)Nc1ccc(C2CCC(=O)NC2=O)cn1 (stereo partly drawn) [Cmpd 10, 2-((2R,6S)-4-(3-((trans-4-(3-(4-Cyano-3-(trifluoromethyl)phenyl)-5,5-dimethyl-4-oxo-2-thioxoimidazolidin-1-yl)cyclohexyl)oxy)propyl)-2,6-dimethylpiperazin-1-yl)-N-(5-(2,6-dioxopiperidin-3-yl)pyridin-2-yl)acetamide hydrochloride]	> 200	*** (40%<Y<80%)	
C[C@@H]1CN(CCO[C@H]2CC[C@H](N3C(=S)N(c4ccc(C#N)c(C(F)(F)F)c4)C(=O)C3(C)C)CC2)C[C@H](C)N1CCOc1ccc(N2CCC(=O)NC2=O)cn1 [Cmpd 11, 4-(3-(trans-4-(2-((3R,5S)-4-(2-((5-(2,4-Dioxotetrahydropyrimidin-1(2H)-yl)pyridin-2-yl)oxy)ethyl)-3,5-dimethylpiperazin-1-yl)ethoxy)cyclohexyl)-4,4-dimethyl-5-oxo-2-thioxoimidazolidin-1-yl)-2-(trifluoromethyl)benzonitrile hydrochloride]	> 200	*** (40%<Y<80%)	
C[C@@H]1CN(CCO[C@H]2CC[C@H](N3C(=S)N(c4ccc(C#N)c(C(F)(F)F)c4)C(=O)C3(C)C)CC2)C[C@H](C)N1CCCOc1ccc(N2CCC(=O)NC2=O)cn1 [Cmpd 12, 4-(3-(trans-4-(2-((3R,5S)-4-(3-((5-(2,4-Dioxotetrahydropyrimidin-1(2H)-yl)pyridin-2-yl)oxy)propyl)-3,5-dimethylpiperazin-1-yl)ethoxy)cyclohexyl)-4,4-dimethyl-5-oxo-2-thioxoimidazolidin-1-yl)-2-(trifluoromethyl)benzonitrile hydrochloride]	> 200	*** (40%<Y<80%)	
C[C@@H]1CN(CCCO[C@H]2CC[C@H](N3C(=S)N(c4ccc(C#N)c(C(F)(F)F)c4)C(=O)C3(C)C)CC2)C[C@H](C)N1CC(=O)Nc1cc(C2CCC(=O)NC2=O)ccn1 (stereo partly drawn) [Cmpd 13, 2-((2R,6S)-4-(3-((trans-4-(3-(4-Cyano-3-(trifluoromethyl)phenyl)-5,5-dimethyl-4-oxo-2-thioxoimidazolidin-1-yl)cyclohexyl)oxy)propyl)-2,6-dimethylpiperazin-1-yl)-N-(4-(2,6-dioxopiperidin-3-yl)pyridin-2-yl)acetamide hydrochloride]	≤ 5	*** (40%<Y<80%)	
C[C@@H]1CN(CCCC[C@H]2CC[C@H](N3C(=S)N(c4ccc(C#N)c(C(F)(F)F)c4)C(=O)C3(C)C)CC2)C[C@H](C)N1CC(=O)Nc1cc(C2CCC(=O)NC2=O)ccn1 (stereo partly drawn) [Cmpd 14, 2-((2R,6S)-4-(4-(trans-4-(3-(4-Cyano-3-(trifluoromethyl)phenyl)-5,5-dimethyl-4-oxo-2-thioxoimidazolidin-1-yl)cyclohexyl)butyl)-2,6-dimethylpiperazin-1-yl)-N-(4-(2,6-dioxopiperidin-3-yl)pyridin-2-yl)acetamide hydrochloride]	5 to 50	* (0<Y≤20%)	
C[C@@H]1CN(CCO[C@H]2CC[C@H](N3C(=S)N(c4ccc(C#N)c(C(F)(F)F)c4)C(=O)C3(C)C)CC2)C[C@H](C)N1CCOc1cc(C2CCC(=O)NC2=O)ccn1 (stereo partly drawn) [Cmpd 15, 4-(3-(trans-4-(2-((3R,5S)-4-(2-((4-(2,6-Dioxopiperidin-3-yl)pyridin-2-yl)oxy)ethyl)-3,5-dimethylpiperazin-1-yl)ethoxy)cyclohexyl)-4,4-dimethyl-5-oxo-2-thioxoimidazolidin-1-yl)-2-(trifluoromethyl)benzonitrile hydrochloride]	5 to 50	*** (40%<Y<80%)	
